This is an account of results in the RepoRT retention time repository.

This series is described as follows: RP, Restek Raptor Biphenyl, 100 × 2.1 mm, 2.7 µm, 50 °C, 0.4 mL/min, estimated dead time 0.55 min; A: water + 0.1% formic acid, pH 3; B: methanol + 0.1% formic acid, pH 3; gradient (min/%B) 0/5 1.12/5 6.41/99.5 10.01/99.5. Particulars: stereoisomer not certain.

Where a name gives a salt, the structure may show the parent alone.

Regarding `COc1cc(C(O)C(=O)O)ccc1O` (racemic) [DL-4-Hydroxy-3-methoxymandelic acid], the LC retention time is 1.73 min.

Turning to `O=C(O)C(O)Cc1c[nH]c2ccccc12` (racemic) [DL-Indole-3-lactic acid], the LC retention time is 3.91 min.

In the case of `COc1cc(CC(O)C(=O)O)ccc1O` (racemic) [DL-Vanillactic acid lithium salt hydrate], the LC retention time is 3.04 min.

As for `O=C(O)CCCC(O)C(=O)O` (racemic) [Disodium (2RS)-2-hydroxyadipate], the LC retention time was 1.03 min.

As for `CC(C(=O)O)C(O)(CC(=O)O)C(=O)O` (racemic) [Trisodium 2-methylcitrate, racemic mixture of diastereomers], the LC retention time was 1.03 min.

Consider `O=C(O)c1cc(O)ccc1O` [2,5-DIHYDROXYBENZOATE], for which the LC retention time is 2.57 min.

On to `O=C(O)c1ccc(C(=O)O)o1` [2,5-Furandicarboxylic acid], for which the LC retention time was 1.51 min.

`O=c1cccc(O)[nH]1` [2,6-DIHYDROXYPYRIDINE]: the LC retention time was 3.3 min.

Take `CSCCC(O)C(=O)O` (stereo not drawn) [2-HYDROXY-4-(METHYLTHIO)BUTANOATE]: the LC retention time is 2.51 min.

Turning to `CCCCCCCCCCCCCCC(O)C(=O)O` (stereo not drawn) [2-Hydroxyhexadecanoic acid], the LC retention time is 6.3 min.

As to `CC(C)CC(O)C(=O)O` (stereo not drawn) [2-Hydroxyisocaproic acid], the LC retention time was 2.76 min.

As for `CCCCCCCCCCCCC(O)C(=O)O` (stereo not drawn) [2-Hydroxytetradecanoic acid], the LC retention time was 6.09 min.

Regarding `CC(C)C(O)(CC(=O)O)C(=O)O` (stereo not drawn) [2-Isopropylmalic acid], the LC retention time was 2.76 min.

With `C=CCC(C)C(=O)O` (stereo not drawn) [2-Methyl-4-pentenoic acid], the LC retention time was 3.16 min.

As to `O=C(O)CCCC(=O)C(=O)O` [2-Oxoadipic acid], the LC retention time was 0.793 min.

Turning to `C=CC(=O)O` [2-PROPENOATE], the LC retention time was 0.959 min.

For the compound `CC(C)(CC(=O)O)CC(=O)O` [3,3-Dimethylglutaric acid], the LC retention time was 3.16 min.

`O=C(O)C(O)c1ccc(O)c(O)c1` (stereo not drawn) [3,4 DIHYDROXYMANDELATE]: the LC retention time is 0.822 min.

For the compound `N[C@@H](Cc1cc(I)c(O)c(I)c1)C(=O)O` [3,5-DIIODO-L-TYROSINE], the LC retention time is 3.59 min.

For `O=C(O)CCc1ccc(O)cc1` [3-(4-Hydroxyphenyl)propionic acid], the LC retention time was 3.65 min.

Take `O=C(O)CCCCCCC(O)CC(=O)O` (stereo not drawn) [3-Hydroxy Sebacic Acid]: the LC retention time was 3.95 min.

Consider `CC(O)(CC(=O)O)CC(=O)O` [3-Hydroxy-3-methylglutaric acid], for which the LC retention time is 1.01 min.

Regarding `O=C(O)CC(O)CC(=O)O` [3-Hydroxyglutaric acid], the LC retention time was 0.77 min.

In the case of `O=C(O)CCC(O)CC(=O)O` (stereo not drawn) [3-Hydroxyhexanedioic Acid], the LC retention time was 0.954 min.

For `O=C(O)C(O)c1cccc(O)c1` (stereo not drawn) [3-Hydroxymandelic acid], the LC retention time is 1.52 min.

As to `O=C(O)CCCCC(O)CC(=O)O` (stereo not drawn) [3-Hydroxysuberic Acid], the LC retention time is 2.74 min.

Regarding `O=C(O)Cc1c[nH]c2ccccc12` [3-Indoleacetic acid], the LC retention time is 4.19 min.

As to `O=C(O)C=Cc1c[nH]c2ccccc12` [3-Indoleacrylic acid], the LC retention time was 4.71 min.

As for `CC(CCC(=O)O)CC(=O)O` (stereo not drawn) [3-Methyladipic acid], the LC retention time was 3.25 min.

With `CC(C)=CC(=O)NCC(=O)O` [3-Methylcrotonyl Glycine], the LC retention time is 2.95 min.

As to `CC(CC(=O)O)CC(=O)O` [3-Methylglutaric acid], the LC retention time is 2.43 min.

`N[C@@H](Cc1ccc(O)c([N+](=O)[O-])c1)C(=O)O` [3-NITRO-L-TYROSINE]: the LC retention time is 1.92 min.

Turning to `C[C@H](CCC(=O)O)[C@H]1CC[C@H]2[C@@H]3CC[C@@H]4CC(=O)CC[C@]4(C)[C@H]3CC[C@]12C` [3-Oxo-5β-cholanoic Acid], the LC retention time was 6.93 min.

`CCCC(C(=O)O)C(O)C(=O)O` (stereo not drawn) [3-Propylmalic acid]: the LC retention time was 2.81 min.

`CC(=O)NCCCC(=O)O` [4-ACETAMIDOBUTANOATE]: the LC retention time is 1.42 min.

Regarding `O=C(O)c1ccc(O)cc1` [4-HYDROXYBENZOATE], the LC retention time is 0.822 min.

On to `O=C(O)Cc1ccc(O)cc1` [4-Hydroxyphenylacetic acid], for which the LC retention time was 3.02 min.

For `O=C(O)C=Cc1cnc[nH]1` [4-Imidazoleacrylic acid], the LC retention time is 0.718 min.

As to `Cc1ncc(CO)c(C(=O)O)c1O` [4-PYRIDOXATE], the LC retention time was 1.8 min.

On to `Cc1ncc2c(c1O)C(=O)OC2` [4-Pyridoxolactone], for which the LC retention time is 2.25 min.

`NCC(=O)CCC(=O)O` [5-AMINOLEVULINATE]: the LC retention time was 1.05 min.

With `O=C1CCCCO1` [5-VALEROLACTONE], the LC retention time was 2.44 min.

`O=C(O)CCCCCC(=O)O` [6-CARBOXYHEXANOATE]: the LC retention time was 3.35 min.

With `O=C(O)CCCCCCCCCO` [10-HYDROXYDECANOATE], the LC retention time was 4.92 min.

Turning to `CCC(C)CCCCCCCCCCCCC(=O)O` (stereo not drawn) [14-Methylhexadecanoic acid], the LC retention time is 6.58 min.

For `CC(C)CCCCCCCCCCCCCC(=O)O` [15-Methylpalmitic acid], the LC retention time is 6.58 min.

Take `CC(C)CCCCCCCCCCCCCCCC(=O)O` [17-Methylstearic acid]: the LC retention time was 6.7 min.

Turning to `C#CCCCCCCCCCCCCCCCC(=O)O` [17-Octadecynoic acid], the LC retention time was 6.53 min.

With `C[C@H](CCC(=O)O)[C@H]1CC[C@H]2[C@@H]3[C@H](O)C[C@@H]4C[C@H](O)CC[C@]4(C)[C@H]3CC(=O)[C@]12C` [(3ALPHA,5BETA,7ALPHA)-3,7-DIHYDROXY-12-OXOCHOLAN-24-OIC ACID], the LC retention time was 6.07 min.

Take `Nc1ncnc2c1ncn2C1OC(COP(=O)(O)O)C(OP(=O)(O)O)C1O` (stereo not drawn) [ADENOSINE 3',5'-DIPHOSPHATE]: the LC retention time is 0.695 min.

With `COP(=O)(NC(C)=O)SC` (stereo not drawn) [Acephate], the LC retention time is 2.34 min.

`O=C(O)CCCCC(=O)O` [Adipic acid]: the LC retention time was 2.5 min.

For `O=C(O)CCCCCCCC(O)C(O)CCCCCCO` (stereo not drawn) [Aleuritic acid], the LC retention time is 4.92 min.

As for `CCCCCCCCCCCCCCCCCCCC(=O)O` [Arachidic acid], the LC retention time is 6.68 min.

On to `O=C(O)CCCCCCCC(=O)O` [Azelaic acid], for which the LC retention time was 4.48 min.

On to `O=Cc1ccccc1` [BENZALDEHYDE], for which the LC retention time is 2.98 min.

As for `O=C(O)CCCCC1SCC2NC(=O)NC21` (stereo not drawn) [BIOTIN], the LC retention time was 4 min.

With `CCC(Oc1ccc(F)c(C(F)(F)F)c1)C(=O)NCc1ccccc1` (stereo not drawn) [Beflubutamid], the LC retention time is 5.9 min.

For the compound `CCCCCCCCCCCCCCCCCCCCCC(=O)O` [Behenic acid], the LC retention time is 6.86 min.

Regarding `CC[n+]1cccc(S(=O)(=O)[O-])c1` [C2-APS], the LC retention time was 0.835 min.

For the compound `CCC[n+]1cccc(S(=O)(=O)[O-])c1` [C3-APS], the LC retention time was 1.67 min.

Turning to `CCCC[n+]1cccc(S(=O)(=O)[O-])c1` [C4-APS], the LC retention time was 2.67 min.

For `CCCCC[n+]1cccc(S(=O)(=O)[O-])c1` [C5-APS], the LC retention time is 3.33 min.

With `CCCCCC[n+]1cccc(S(=O)(=O)[O-])c1` [C6-APS], the LC retention time is 3.92 min.

On to `CCCCCCC[n+]1cccc(S(=O)(=O)[O-])c1` [C7-APS], for which the LC retention time was 4.41 min.

With `CCCCCCCC[n+]1cccc(S(=O)(=O)[O-])c1` [C8-APS], the LC retention time was 4.8 min.

`CCCCCCCCC[n+]1cccc(S(=O)(=O)[O-])c1` [C9-APS]: the LC retention time was 5.13 min.

Regarding `CCCCCCCCCC[n+]1cccc(S(=O)(=O)[O-])c1` [C10-APS], the LC retention time was 5.39 min.

Regarding `CCCCCCCCCCC[n+]1cccc(S(=O)(=O)[O-])c1` [C11-APS], the LC retention time was 5.61 min.

With `CCCCCCCCCCCC[n+]1cccc(S(=O)(=O)[O-])c1` [C12-APS], the LC retention time is 5.79 min.

As to `CCCCCCCCCCCCC[n+]1cccc(S(=O)(=O)[O-])c1` [C13-APS], the LC retention time is 5.95 min.

For the compound `CCCCCCCCCCCCCC[n+]1cccc(S(=O)(=O)[O-])c1` [C14-APS], the LC retention time is 6.1 min.

With `CCCCCCCCCCCCCCC[n+]1cccc(S(=O)(=O)[O-])c1` [C15-APS], the LC retention time was 6.23 min.

With `CCCCCCCCCCCCCCCC[n+]1cccc(S(=O)(=O)[O-])c1` [C16-APS], the LC retention time is 6.34 min.

Consider `CCCCCCCCCCCCCCCCC[n+]1cccc(S(=O)(=O)[O-])c1` [C17-APS], for which the LC retention time was 6.44 min.

As for `CCCCCCCCCCCCCCCCCC[n+]1cccc(S(=O)(=O)[O-])c1` [C18-APS], the LC retention time was 6.52 min.

For the compound `CCCCCCCCCCCCCCCCCCC[n+]1cccc(S(=O)(=O)[O-])c1` [C19-APS], the LC retention time was 6.61 min.

For the compound `CCCCCCCCCCCCCCCCCCCC[n+]1cccc(S(=O)(=O)[O-])c1` [C20-APS], the LC retention time was 6.67 min.

Take `CC(=O)OCC(=O)C1(O)CCC2C3CCC4=CC(=O)CCC4(C)C3C(O)CC21C` (stereo not drawn) [CORTISOL 21-ACETATE]: the LC retention time was 5.88 min.

Consider `CC12CCC(=O)C=C1CCC1C2C(O)CC2(C)C1CCC2(O)C(=O)CO` (stereo not drawn) [CORTISOL], for which the LC retention time is 5.49 min.

In the case of `Nc1nc2c(ncn2C2OC3COP(=O)(O)OC3C2O)c(=O)[nH]1` (stereo not drawn) [CYCLIC GMP], the LC retention time was 1.14 min.

Turning to `CC1=C(C(=O)Nc2ccccc2)SCCO1` [Carboxin], the LC retention time was 5.79 min.

As for `CNC(=O)c1cc(Cl)cc(C)c1NC(=O)c1cc(Br)nn1-c1ncccc1Cl` [Chlorantraniliprole], the LC retention time is 5.84 min.
